Measurements taken from patent US12433858B2, “Substituted cycloalkanes for managing nephrogenic diabetes insipidus” (NephroDI Therapeutics, Inc., priority 2017, dated 2025).
Entries after “also recorded” stand apart in the source; their conditions may differ.

Columns and labels:
[1] = test system: Tolvaptan induced NDI rats; assay: Tolvaptan-induced NDI rat model, urine concentration; type: in vivo
Description: Rats were given tolvaptan to induce NDI. Tolvaptan binds to and blocks the vasopressin type 2 receptor (V2R) and renders the animals insensitive to vasopressin-induced antidiuresis. The efficacy of three compounds of Formula I were evaluated. Each rat was gavage fed with 10 mg/kg/day of tolvaptan in the carrier solution (1% hydroxypropylmethyl cellulose in water) for 3 days to prepare the NDI model. The drugs were added to the gavage feeding solution and delivered daily for 4 days (NDI-5001, 200 mg/kg/day; NDI-5033 or NDI-5037, 50 mg/kg/day). Control rats were sham gavage fed.
(§1) NDI-5033 was tested to determine an initial time course and sustainability of the anti-diuretic response. Rats were given tolvaptan to initiate NDI. They were then fed 100 mg/kg/day with NDI-5033 for 3 days (FIG. 2A). […] To ensure that the observed efficacy is not compromised by potential binding of NDI-5033 to V2R, NDI-5033 was given to mice in which the V2R was genetically knocked out yielding a genetic model of NDI (FIG. 2B). Control mice received no drug. NDI-5033 was given by injection to the mice and 24-hour urine collected and assessed for urine osmolality. NDI-5033 produced a 50% improvement in urine concentration.
(§2) Tolvaptan induced NDI rats were prepared and fed with doses of NDI-5033 from 0 to 100 mg/kg/day in a series of experiments. […] To confirm the effectiveness of the 25 mg/kg/day dose, NDI-5033 was given to V2R knock-out NDI mice and 24-hour urines were assessed for urine osmolality (FIG. 3B). The osmolality was increased in NDI mice after treatment with 25 mg/kg/day of NDI-5033.
(§3) An experiment was designed to approximate hypoglycemia in the tolvaptan-treated rat NDI model to look for hypoglycemia. A timeline for the experiment is illustrated in FIG. 4A. The rats were given tolvaptan beginning Day negative 3. On Day zero half of the rats started to receive 25 mg/kg/day of NDI-5033. After observing an improvement in the urine concentration, the animals were exercised daily for 5 days. Food was removed from the animals and NDI-5033 was given, then 4 hours later rats were subjected to 30 minutes of treadmill running. Blood glucose measurements were taken before and after the bout of exercise. Food was restored. The process was repeated daily for 5 days. The average urine osmolality and urine volumes in the NDI rats not receiving NDI-5033 (control) or receiving 25 mg/kg/day NDI-5033 is shown in FIG. 4B. Urine osmolality was increased (p<0.05) and urine volume decreased (p<0.07) upon drug treatment. […] For each day, patterned bars are from rats not receiving NDI-5033. The leftmost bar (diagonal) is before and to the right is after exercise. The next two bars show blood glucose values for rats receiving NDI-5033. Solid black is before and solid white is after exercise.

[2] = Hypoglycemia evaluation on chronic dosing in exercised tolvaptan-treated NDI rats (blood glucose); type: in vivo, rat; conditions: 25 mg/kg/day, daily for 5 days
Description: as §3

V2R knock-out NDI mice = assay: V2R knock-out mouse genetic model of NDI, 24-hour urine osmolality; type: in vivo
Description: as §1, §2

[3] = 100 mg/kg/day for 3 days, tolvaptan NDI rats
[4] = food removed, 30 minutes treadmill 4 hours after dose

| SMILES | urine osmolality as percent of the normal animal ([1]; tolvaptan 10 mg/kg/day by gavage for 3 days, NDI induction) | average urine osmolality (in words) ([1]; 25 mg/kg/day versus control NDI rats, exercise study, p<0.05, FIG. 4B) | average urine volume (in words) ([1]; 25 mg/kg/day versus control NDI rats, exercise study, p<0.07, FIG. 4B) | duration for which anti-diuretic response is sustained [1, 3] | time to anti-diuretic effect after initial treatment [1, 3] | urine concentrating ability (urine osmolality) as percent of untreated, fully concentrating rats (basal, set to 100%) ([1]; NDI-5033 50 mg/kg/day by gavage daily for 4 days, after tolvaptan 10 mg/kg/day for 3 days) | dose showing statistically significant improvements in urine concentrations ([1]; dose response 0 to 100 mg/kg/day, FIG. 3A) | urine osmolality (in words) ([1]; dosed with NDI inducing agent tolvaptan, FIG. 2A, 100 mg/kg/day for 3 days) | efficacy / urine concentrating ability (in words) ([1]; gavage daily for 4 days, NDI-5001 200 mg/kg/day, NDI-5033 or NDI-5037 50 mg/kg/day, tolvaptan NDI rats) | hypoglycemia ([2]; exercised NDI rats) | blood glucose before versus after exercise [2, 4] | blood glucose relative to normal range for rats [2, 4] | urine osmolality (in words) (V2R knock-out NDI mice; 25 mg/kg/day, 24-hour urines, FIG. 3B) | improvement in urine concentration (V2R knock-out NDI mice; given by injection, 24-hour urine, versus control mice receiving no drug) |
| --- | --- | --- | --- | --- | --- | --- | --- | --- | --- | --- | --- | --- | --- | --- |
| Cc1ccccc1C(=O)Nc1ccc(C(=O)N2CCCC(O)c3cc(Cl)ccc32)c(C)c1 (centres unmarked) [tolvaptan, reference compound] | 10 % of the normal animal | – | – | – | – | – | – | – | – | – | – | – | – | – |
| NC(=O)C1(CCCCCCCCCCCCC2(C(N)=O)CC2)CC1 [NDI-5033, 1,1′-(dodecane-1,12-diyl)bis(cyclopropane-1-carboxamide)] | – | increased | decreased | 3 days | ≤ 24 h | 75 % of normal | ≥ 10 mg/kg/day | increases urine osmolality | improve urine concentrating ability | no evidence of hypoglycemia; also recorded: do not experience hypoglycemia | no statistical difference | within the normal range | increased | 50% |
